Test results as given in patent US8772504B2, “Substituted benzoxazole, benzimidazole, oxazolopyridine and imidazopyridine derivatives as gamma secretase modulators” (Janssen Pharmaceuticals, Inc., priority 2009, dated 2014).
pIC50: −log10 of the molar value.

Columns and labels:
[1] = system: Notch-processing activity of the γ-secretase-complex; test: Notch cell-free assay (NICD production from recombinant Notch substrate N99); type: biochemical, mouse; details: 1 μM test compound, 0.3-0.5 μM Notch substrate, 37° C. for 6 to 22 h, western blotting
Protocol: The Notch transmembrane domain is cleaved by gamma secretase to release
Notch Intracellular C-terminal Domain (NICD).
To monitor the effect of compounds on NICD production, a recombinant Notch substrate (N99) was prepared. The Notch substrate, comprised of mouse Notch fragment (V1711-E1809), an N-terminal methionine and a C-terminal FLAG sequence ([…]), was expressed in E. coli and purified on a column containing an anti-FLAG M2 affinity matrix.
A typical Notch cell-free assay consisted of 0.3-0.5 μM Notch substrate, an enriched preparation of γ secretase and 1 μM of a test compound (compounds 8, 15, 92, 108, 114 and 130 of the present invention). Controls included a γ secretase inhibitor (GSI), such as (2S)—N-[2-(3,5-difluorophenyeacetyl]-L-alanyl-2-phenyl-glycine 1,1-dimethylethyl ester (DAPT) or (2S)-2-hydroxy-3-methyl-N-[(1S)-1-methyl-2-oxo-2-[[(1S)-2,3,4,5-tetrahydro-3-methyl-2-oxo-1H-3-benzazepin-1-yl]amino]ethyl]-butanamide (Semagacestat), and DMSO, the final concentration of DMSO being 1%. Recombinant Notch substrate was pre-treated with 17 μM DTT (1,4-dithiothreitol) and 0.02% SDS (Sodium Dodecyl Sulfate) and heated at 65° C. for 10 min. The mixture of substrate, gamma secretase and compound/DMSO was incubated at 37° C. for 6 to 22 hours (h). 6 h incubation was sufficient to produce the maximal amount of NICD and the cleaved product remained stable for an additional 16 h. Reaction products were processed for SDS PAGE (Sodium Dodecyl Sulfate-Poly Acrylamide Gel Electrophoresis) and western blotting. Blots were probed with an anti-Flag M2 antibody, followed by LI-COR infrared secondary antibody, and analyzed with the Odyssey Infrared Imaging System (LI-COR® Biosciences).

[2] = system: T1, Notch-processing activity of the γ-secretase-complex; test: Notch cell-based assay (N2-CHO/DL-CHO co-culture, Dual-Glo luciferase); parameters: species or system mouse; details: N2-CHO/DL-CHO co-culture 16 h; read-out: average IC50 Notch cell-based assay (luciferase readout)
T1 construct: average IC50 Notch cell-based assay (luciferase readout); other: N2-CHO/DL-CHO co-culture 16 h; five-point curve 3 μM-
Source text: The Notch cell-based assay was based on the interaction of Notch and its ligand in a co-culture system and utilized the Dual-Glo Luciferase Assay System (Promega) to monitor NICD production. 2 stable cell lines, N2-CHO and DL-CHO, were established to express full-length mouse Notch2 and Delta respectively. Cells that expressed mouse Notch were also transfected with 2 plasmids, pTP1-Luc and pCMV-RLuc, to express firefly and Renilla luciferase. Expression of firefly luciferase was under the control of TP1 promoter that responded to NICD activation.
N2-CHO cells were seeded at 1×10^5/well in 24-well plates the day before transfection. On the second day, cells were double transfected with 3 μg/well pTP1-Luc (expressing firefly luciferase) and 0.3 ng/well pCMV-RLuc (expressing Renilla luciferase). After 6 h incubation, transfected N2-CHO cells were washed and DL-CHO cells (2×10^5 cells/well) were added.
Compounds were pre-mixed with DL-CHO cell suspension in a five-point curve. Typically, compound treatment was performed in duplicate with a serial 1:10 dilution (3 μM-0.3 nM) in DMSO. The final concentration of DMSO in a given culture was 1%. Controls included non-transfected cells and transfected cells treated with a GSI or DMSO only. Luciferase assays were performed after 16 h co-culture and compound treatment.
The luciferase assay was carried out according to manufacture's instructions. Briefly, cells were washed with PBS (Phosphate Buffered Saline), lysed with Passive Lysis Buffer (Promega), and incubated at room temperature for 20 min. Lysates were mixed with Dual-Glo Luciferase Reagent and the firefly luciferase activity was measured by reading the luminescence signal in the EnVision 2101 Multilabel reader. Dual-Glo Stop & Glo Reagent was then added to each well and the Renilla luciferase signal was measured.

pIC50 [2]	Compound	effect on the Notch-processing activity of the γ-secretase-complex (production of NICD) [1]
7.35	CC(NC(=O)Cc1cc(F)cc(F)c1)C(=O)NC(C(=O)OC(C)(C)C)c1ccccc1 [DAPT, (2S)—N-[2-(3,5-difluorophenyeacetyl]-L-alanyl-2-phenyl-glycine 1,1-dimethylethyl ester, reference compound]	blocked
7.40	CC(C)[C@H](O)C(=O)N[C@@H](C)C(=O)N[C@@H]1C(=O)N(C)CCc2ccccc21 [Semagacestat, (2S)-2-hydroxy-3-methyl-N-[(1S)-1-methyl-2-oxo-2-[[(1S)-2,3,4,5-tetrahydro-3-methyl-2-oxo-1H-3-benzazepin-1-yl]amino]ethyl]-butanamide, reference compound]	blocked
